Data: US6531464B1, “Methods for the treatment of neurodegenerative disorders using substituted phenanthridinone derivatives” (Inotek Pharmaceutical Corporation, priority 1999, dated 2003)

Tests used:
Assay type in all cases: cell-based
PARS [1] = molecular target: T1, PARS (Mus musculus, UniProt P11103); assay: High glucose induced PARS activation in murine lung microvascular endothelial cells; design: endogenous in cells; host or cells: primary lung microvascular endothelial cells from wild-type mice; settings: 30 mM glucose, 6 hours; PJ34 100 nM-3 μM, MnTBAP 100 μM, carboxy-PTIO 300 μM, L-NMA 3 mM, L-NAME 3 mM
Protocol: In brief, lung microvascular endothelial cells were isolated from wild-type (+/+) and PARS knockout (−/−) mice. Cells were maintained in F12/DMEM (1:1) medium supplemented with endothelial cell growth supplement (100 μg/l heparin and 10% fetal calf serum).
PARS activation was measured in endothelial cells seeded in 6 well tissue culture plates pre-coated with endothelial cell attachment factor (Sigma). Medium was replaced by regular- (see above) or FCS-free HUVEC medium containing 5 mM D-glucose 12 h before the experiment. […] After 10 min, cells were scraped, transferred into Eppendorf tubes and the reaction was stopped by trichloroacetic acid (TCA). Pellets were washed three times in 5% TCA and then solubilized in 500 μl 2% SDS/0.1 N NaOH at 37° C. Contents of the tubes were added to 7 ml ScintiSafe Plus scintillation liquid and radioactivity was measured in a liquid scintillation counter (Wallac, Gaithersburg, Md.). Activity was normalized for protein content.
Target sequence in this assay (P11103 whole entry): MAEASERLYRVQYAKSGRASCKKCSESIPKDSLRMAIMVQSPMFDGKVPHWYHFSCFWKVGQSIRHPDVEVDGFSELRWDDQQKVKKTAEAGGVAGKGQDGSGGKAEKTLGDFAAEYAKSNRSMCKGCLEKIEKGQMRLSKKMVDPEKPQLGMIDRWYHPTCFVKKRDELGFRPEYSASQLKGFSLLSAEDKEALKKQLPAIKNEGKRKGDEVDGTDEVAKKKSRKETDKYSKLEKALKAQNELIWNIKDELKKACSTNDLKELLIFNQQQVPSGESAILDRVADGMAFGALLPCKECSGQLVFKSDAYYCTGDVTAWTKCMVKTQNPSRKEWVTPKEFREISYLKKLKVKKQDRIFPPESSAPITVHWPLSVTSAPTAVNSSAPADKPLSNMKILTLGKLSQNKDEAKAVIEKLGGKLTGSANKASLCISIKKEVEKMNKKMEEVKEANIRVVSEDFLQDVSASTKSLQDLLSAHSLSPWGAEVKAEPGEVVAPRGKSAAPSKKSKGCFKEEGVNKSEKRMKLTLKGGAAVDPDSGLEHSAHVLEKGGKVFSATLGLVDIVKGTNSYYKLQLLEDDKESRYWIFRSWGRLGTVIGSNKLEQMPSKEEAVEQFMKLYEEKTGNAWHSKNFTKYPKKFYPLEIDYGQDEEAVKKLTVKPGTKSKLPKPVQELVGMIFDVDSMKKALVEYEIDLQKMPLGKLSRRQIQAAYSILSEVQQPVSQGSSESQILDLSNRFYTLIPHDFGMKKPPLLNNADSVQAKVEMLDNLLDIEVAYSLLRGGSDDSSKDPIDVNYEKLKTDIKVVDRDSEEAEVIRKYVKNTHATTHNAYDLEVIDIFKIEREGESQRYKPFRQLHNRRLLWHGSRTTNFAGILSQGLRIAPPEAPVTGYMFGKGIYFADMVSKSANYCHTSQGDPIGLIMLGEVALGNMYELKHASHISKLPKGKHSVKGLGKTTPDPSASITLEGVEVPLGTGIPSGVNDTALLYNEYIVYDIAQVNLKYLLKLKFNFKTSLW

thymocytes = assay: Peroxynitrite-stimulated thymocytes: cell viability; settings: for EC50: Thymocyte, peroxynitrite 30 μM, 30 min pretreatment 0.1 to 30 μM, measured at 6 h, mean±SEM n=3-6, read-out: Enhancement of cell viability (thymocyte); for oxidant-induced suppression of the viability of the cells (in words): isolated thymocytes exposed to peroxynitrite or hydrogen peroxide
Protocol: (§1) The half-maximal inhibitory effect (in μM) of various PJ compounds was assessed under a variety of conditions in immunostimulated J774 macrophages and in peroxynitrite-stimulated thymocytes. Macrophages or thymocytes were first treated with a chosen PJ compound for 30 min at a concentration ranging from 0.1 to 30 μM. The cells were then immunostimulated with LPS (10 μg/ml) or treated with peroxynitrite (30 μM). MIP production in the macrophages was measured at 3 h, TNF and nitric oxide were measured at 24 h, cell viability in the macrophages were measured at 24 h. PARS activation and cell death in thymocytes were measured at 6 h. Measurements of mediator production, PARS activation and cell death were essentially as described in Németh, et al., Eur J Pharmacol 339:215-221, 1997 and Virág and Szabó, Br J Pharmacol, 126: 769-777, 1999. Results in Table 2 are shown as EC50 values (half maximal inhibition of mediator production or restoration of cell viability; in μM): [mean±SEM of n=3-6 determinations].

J774 macrophages = assay: LPS-stimulated J774 macrophages: cell viability; settings: for viability of the cells suppressed by LPS exposure (in words): J774 macrophages exposed to LPS; for EC50: Mus musculus, J774, LPS 10 μg/ml, 30 min pretreatment 0.1 to 30 μM, measured at 24 h, mean±SEM n=3-6, read-out: Enhancement of cell Viability (J774)
Description: (§2) In in vitro studies, J774 macrophages were exposed to bacterial lipopolysaccharide (LPS), to induce pro-inflammatory mediator production and cytotoxicity. […] This assay (the LPS-stimulated macrophage) represents an in vitro model of an inflammatory situation. Agents that block inflammatory mediator production in this assay are expected to have anti-inflammatory or immunosuppressive effects in inflammatory or immune diseases.
as §1

MIP-1α = assay: LPS-stimulated J774 macrophages: MIP-1α production; settings: for production of the chemokine MIP-1α (in words): J774 macrophages exposed to LPS; for EC50: Mus musculus, J774, LPS 10 μg/ml, 30 min pretreatment 0.1 to 30 μM, measured at 3 h, mean±SEM n=3-6, read-out: Inhibition of MIP-1α (J774)
Description: as §2, §1

TNF-α = assay: LPS-stimulated J774 macrophages: TNF-α production; settings: for production of the pro-inflammatory cytokine TNF-α (in words): J774 macrophages exposed to LPS; for EC50: Mus musculus, J774, LPS 10 μg/ml, 30 min pretreatment 0.1 to 30 μM, measured at 24 h, mean±SEM n=3-6, read-out: Inhibition of TNF-α (J774)
Description: as §2, §1

MIP-2 = assay: LPS-stimulated J774 macrophages: MIP-2 production; settings: for production of the chemokine MIP-2 (in words): J774 macrophages exposed to LPS; for EC50: Mus musculus, J774, LPS 10 μg/ml, 30 min pretreatment 0.1 to 30 μM, measured at 3 h, mean±SEM n=3-6, read-out: Inhibition of MIP-2 (J774)
Description: as §2, §1

PARS [2] = molecular target: T1, PARS; assay: Peroxynitrite-stimulated thymocytes: PARS activation; settings: isolated thymocytes exposed to peroxynitrite or hydrogen peroxide
Protocol: The half-maximal inhibitory effect (in μM) of various PJ compounds was assessed under a variety of conditions in immunostimulated J774 macrophages and in peroxynitrite-stimulated thymocytes. Macrophages or thymocytes were first treated with a chosen PJ compound for 30 min at a concentration ranging from 0.1 to 30 μM. The cells were then immunostimulated with LPS (10 μg/ml) or treated with peroxynitrite (30 μM). MIP production in the macrophages was measured at 3 h, TNF and nitric oxide were measured at 24 h, cell viability in the macrophages were measured at 24 h. PARS activation and cell death in thymocytes were measured at 6 h.
Target sequence in this assay (P11103 2-1013): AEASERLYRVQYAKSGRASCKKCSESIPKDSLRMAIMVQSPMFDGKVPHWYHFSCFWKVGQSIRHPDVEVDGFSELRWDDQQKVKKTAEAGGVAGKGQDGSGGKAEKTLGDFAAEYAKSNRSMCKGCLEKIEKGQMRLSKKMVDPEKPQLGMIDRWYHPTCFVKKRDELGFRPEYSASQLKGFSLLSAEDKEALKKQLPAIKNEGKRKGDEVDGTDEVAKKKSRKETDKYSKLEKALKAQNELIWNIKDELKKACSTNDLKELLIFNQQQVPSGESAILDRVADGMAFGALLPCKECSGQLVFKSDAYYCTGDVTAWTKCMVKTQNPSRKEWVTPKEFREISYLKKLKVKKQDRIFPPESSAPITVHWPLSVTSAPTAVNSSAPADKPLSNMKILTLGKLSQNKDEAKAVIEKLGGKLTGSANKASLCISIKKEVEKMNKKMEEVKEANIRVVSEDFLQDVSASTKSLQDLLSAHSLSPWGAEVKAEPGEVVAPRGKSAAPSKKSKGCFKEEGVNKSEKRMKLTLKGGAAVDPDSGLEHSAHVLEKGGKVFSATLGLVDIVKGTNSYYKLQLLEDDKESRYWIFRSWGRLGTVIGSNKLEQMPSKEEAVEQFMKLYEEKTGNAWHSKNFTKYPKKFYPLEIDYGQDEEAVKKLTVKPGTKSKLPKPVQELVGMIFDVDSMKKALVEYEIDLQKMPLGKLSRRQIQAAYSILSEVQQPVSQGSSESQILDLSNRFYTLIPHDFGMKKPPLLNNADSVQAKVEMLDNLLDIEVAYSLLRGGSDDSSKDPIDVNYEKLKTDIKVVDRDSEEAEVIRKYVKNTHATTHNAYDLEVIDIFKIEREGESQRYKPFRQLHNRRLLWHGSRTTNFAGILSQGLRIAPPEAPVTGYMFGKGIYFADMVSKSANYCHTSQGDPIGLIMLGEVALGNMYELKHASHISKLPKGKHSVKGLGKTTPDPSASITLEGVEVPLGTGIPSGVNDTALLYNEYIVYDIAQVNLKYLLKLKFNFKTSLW

nitric oxide (nitrite) = assay: LPS-stimulated J774 macrophages: nitric oxide production measured as nitrite; settings: for production of nitric oxide, measured as nitrite (in words): J774 macrophages exposed to LPS; for EC50: Mus musculus, J774, read-out: Inhibition of Nitrite (J774)
Description: as §2, §1

[3] = LPS 10 μg/ml, 30 min pretreatment 0.1 to 30 μM, measured at 24 h, mean±SEM n=3-6

Structure (SMILES)	high glucose induced PARP/PARS activation (PARS [1])	EC50 (thymocytes)	oxidant-induced suppression of the viability of the cells (in words) (thymocytes)	viability of the cells suppressed by LPS exposure (in words) (J774 macrophages)	EC50 (J774 macrophages)	production of the chemokine MIP-1α (in words) (MIP-1α)	EC50 (MIP-1α)	production of the pro-inflammatory cytokine TNF-α (in words) (TNF-α)	EC50 (TNF-α)	production of the chemokine MIP-2 (in words) (MIP-2)	EC50 (MIP-2)	activation of PARS (in words) (PARS [2])	production of nitric oxide, measured as nitrite (in words) (nitric oxide (nitrite))	EC50 (nitric oxide (nitrite); [3])	Inhibition of Nitrite (J774) (nitric oxide (nitrite); [3])
CNC(=N)NCCC[C@H](N)C(=O)O [L-NMA, N^G-methyl-L-arginine]	significantly reduced														
CN1CCN(CC(=O)Nc2ccc3[nH]c(=O)c4ccccc4c3c2)CC1 [PJ46]		1.3 ± 0.3 µM	prevented	restored the viability	> 30 µM	inhibited	> 30 µM	inhibited	9.2 ± 0.88 µM	inhibited	> 30 µM	inhibited	inhibited	> 30 µM	
O=C(O)c1ccc(/C2=C3\C=CC(=N3)/C(c3ccc(C(=O)O)cc3)=c3/cc/c4[n]3[Mn]([Cl])[n]3c2ccc3/C(c2ccc(C(=O)O)cc2)=C2/C=CC(=N2)\C=4c2ccc(C(=O)O)cc2)cc1 [MnTBAP]	attenuated														
COC(=O)[C@@H](N)CCCNC(=N)N[N+](=O)[O-] [L-NAME, N^G-nitro-L-arginine methyl ester]	significantly reduced														
CCN(CC)CC(=O)Nc1ccc2[nH]c(=O)c3ccccc3c2c1 [PJ44]		0.2 ± 0.1 µM	prevented	restored the viability	16.2 ± 1.9 µM	inhibited	10.2 ± 0.95 µM	inhibited	11.1 ± 0.67 µM	inhibited	22.4 ± 1.2 µM	inhibited	inhibited		No effect
O=C(CN1CCOCC1)Nc1ccc2[nH]c(=O)c3ccccc3c2c1 [PJ38]		0.4 ± 0.2 µM	prevented	restored the viability	22.1 ± 2.7 µM	inhibited	11.3 ± 1.4 µM	inhibited	6.2 ± 0.42 µM	inhibited	14.9 ± 1.3 µM	inhibited	inhibited	20.2 ± 1.5 µM	
O=C(CN1CCCCC1)Nc1ccc2[nH]c(=O)c3ccccc3c2c1 [PJ36]		0.3 ± 0.1 µM	prevented	restored the viability	20.2 ± 2.3 µM	inhibited	15.2 ± 2.1 µM	inhibited	11.2 ± 1.1 µM	inhibited	21.2 ± 2.7 µM	inhibited	inhibited	25.4 ± 2.9 µM	
CC1(C)N([O])C(c2ccc(C(=O)O)cc2)=[N+]([O-])C1(C)C [carboxy-PTIO]	attenuated														
